Experimental data published in patent US10059688B2, “Protein tyrosine kinase modulators and methods of use” (BETTA PHARMACEUTICALS CO., LTD., priority 2013, dated 2018).

How the values were obtained:
[1] = test system: A549 (EGFR WT) NSCLC cells; experiment: Cell proliferation assay (MTS cell viability); type: cell-based; conditions: Homo sapiens, 72 h; A549 cells, 3 days of exposure, MTS
EGFR (T790M) (h) = EGFR (T790M) (h) (Homo sapiens (Human), UniProt P00533, T790M); experiment: Kinase assay, single dose inhibition (Millipore, 33P-ATP filter binding); type: biochemical; conditions: 0.1 μM test compound, 10 μM ATP; remaining activity relative to DMSO control = 100%
ALK (h) = ALK (h) (Homo sapiens (Human), UniProt Q9UM73); experiment: as above; type: biochemical; conditions: 0.1 μM test compound, 10 μM ATP; remaining activity relative to DMSO control = 100%
EGFR (L858R) (h) = EGFR (L858R) (h) (Homo sapiens (Human), UniProt P00533, L858R); experiment: as above; type: biochemical; conditions: 0.1 μM test compound, 10 μM ATP; remaining activity relative to DMSO control = 100%
[2] = test system: H1975 (EGFR L858R/T790M) NSCLC cells; experiment: Cell proliferation assay (MTS cell viability); type: cell-based; conditions: Homo sapiens, NCI-H1975, 72 h; H1975 cells, 3 days of exposure, MTS
EGFR (h) = EGFR (h) (Homo sapiens (Human), UniProt P00533); experiment: Kinase assay, single dose inhibition (Millipore, 33P-ATP filter binding); type: biochemical; conditions: 0.1 μM test compound, 10 μM ATP; remaining activity relative to DMSO control = 100%
[3] = test system: HCC827 (EGFR Del) NSCLC cells; experiment: Cell proliferation assay (MTS cell viability); type: cell-based; conditions: Homo sapiens, 72 h; HCC827 cells, 3 days of exposure, MTS
EGFR (T790M, L858R) (h) = EGFR (T790M, L858R) (h) (Homo sapiens (Human), UniProt P00533, L858R/T790M); experiment: Kinase assay, single dose inhibition (Millipore, 33P-ATP filter binding); type: biochemical; conditions: 0.1 μM test compound, 10 μM ATP; remaining activity relative to DMSO control = 100%

ALK (h), sequence (Q9UM73 19-1620): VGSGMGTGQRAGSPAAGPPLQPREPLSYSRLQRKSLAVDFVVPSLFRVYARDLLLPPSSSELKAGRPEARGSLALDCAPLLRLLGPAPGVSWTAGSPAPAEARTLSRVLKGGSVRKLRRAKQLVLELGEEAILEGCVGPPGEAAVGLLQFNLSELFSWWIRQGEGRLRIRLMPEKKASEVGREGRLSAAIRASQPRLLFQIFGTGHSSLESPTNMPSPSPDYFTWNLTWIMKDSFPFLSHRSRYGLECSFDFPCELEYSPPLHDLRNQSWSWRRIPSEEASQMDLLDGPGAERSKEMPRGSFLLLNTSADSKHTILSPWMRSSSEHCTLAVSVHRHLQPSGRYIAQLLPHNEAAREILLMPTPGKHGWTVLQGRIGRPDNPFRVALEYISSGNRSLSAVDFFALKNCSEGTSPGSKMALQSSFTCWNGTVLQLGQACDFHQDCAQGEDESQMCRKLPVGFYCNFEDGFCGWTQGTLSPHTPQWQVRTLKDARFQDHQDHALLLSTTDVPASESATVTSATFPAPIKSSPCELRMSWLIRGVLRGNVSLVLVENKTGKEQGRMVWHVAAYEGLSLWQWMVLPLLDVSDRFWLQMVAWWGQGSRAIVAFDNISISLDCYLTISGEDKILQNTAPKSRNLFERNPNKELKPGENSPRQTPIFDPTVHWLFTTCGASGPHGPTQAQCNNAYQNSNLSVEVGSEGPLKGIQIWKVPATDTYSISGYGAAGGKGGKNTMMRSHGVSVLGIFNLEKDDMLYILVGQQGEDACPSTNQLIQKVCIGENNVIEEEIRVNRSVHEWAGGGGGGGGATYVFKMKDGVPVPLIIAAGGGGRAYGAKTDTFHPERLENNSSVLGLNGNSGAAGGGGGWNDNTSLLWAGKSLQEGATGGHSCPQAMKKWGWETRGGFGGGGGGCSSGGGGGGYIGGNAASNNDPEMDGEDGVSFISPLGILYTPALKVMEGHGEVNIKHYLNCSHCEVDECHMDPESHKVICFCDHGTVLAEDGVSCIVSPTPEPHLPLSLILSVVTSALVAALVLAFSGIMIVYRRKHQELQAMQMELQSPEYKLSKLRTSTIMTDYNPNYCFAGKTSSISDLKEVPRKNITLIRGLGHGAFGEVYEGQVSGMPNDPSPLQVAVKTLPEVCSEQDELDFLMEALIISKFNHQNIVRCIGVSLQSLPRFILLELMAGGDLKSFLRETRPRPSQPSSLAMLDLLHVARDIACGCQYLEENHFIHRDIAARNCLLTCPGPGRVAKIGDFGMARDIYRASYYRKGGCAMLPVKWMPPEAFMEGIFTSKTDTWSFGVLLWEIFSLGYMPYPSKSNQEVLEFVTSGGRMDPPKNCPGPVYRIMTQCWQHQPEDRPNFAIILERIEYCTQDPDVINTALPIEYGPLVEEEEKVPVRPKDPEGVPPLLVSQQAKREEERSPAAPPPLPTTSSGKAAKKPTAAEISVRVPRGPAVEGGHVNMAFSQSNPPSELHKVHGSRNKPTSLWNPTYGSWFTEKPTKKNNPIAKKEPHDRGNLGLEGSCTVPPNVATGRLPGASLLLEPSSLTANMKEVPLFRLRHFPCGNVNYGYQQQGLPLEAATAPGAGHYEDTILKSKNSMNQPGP
EGFR (T790M) (h), sequence (P00533 25-1210 T790M): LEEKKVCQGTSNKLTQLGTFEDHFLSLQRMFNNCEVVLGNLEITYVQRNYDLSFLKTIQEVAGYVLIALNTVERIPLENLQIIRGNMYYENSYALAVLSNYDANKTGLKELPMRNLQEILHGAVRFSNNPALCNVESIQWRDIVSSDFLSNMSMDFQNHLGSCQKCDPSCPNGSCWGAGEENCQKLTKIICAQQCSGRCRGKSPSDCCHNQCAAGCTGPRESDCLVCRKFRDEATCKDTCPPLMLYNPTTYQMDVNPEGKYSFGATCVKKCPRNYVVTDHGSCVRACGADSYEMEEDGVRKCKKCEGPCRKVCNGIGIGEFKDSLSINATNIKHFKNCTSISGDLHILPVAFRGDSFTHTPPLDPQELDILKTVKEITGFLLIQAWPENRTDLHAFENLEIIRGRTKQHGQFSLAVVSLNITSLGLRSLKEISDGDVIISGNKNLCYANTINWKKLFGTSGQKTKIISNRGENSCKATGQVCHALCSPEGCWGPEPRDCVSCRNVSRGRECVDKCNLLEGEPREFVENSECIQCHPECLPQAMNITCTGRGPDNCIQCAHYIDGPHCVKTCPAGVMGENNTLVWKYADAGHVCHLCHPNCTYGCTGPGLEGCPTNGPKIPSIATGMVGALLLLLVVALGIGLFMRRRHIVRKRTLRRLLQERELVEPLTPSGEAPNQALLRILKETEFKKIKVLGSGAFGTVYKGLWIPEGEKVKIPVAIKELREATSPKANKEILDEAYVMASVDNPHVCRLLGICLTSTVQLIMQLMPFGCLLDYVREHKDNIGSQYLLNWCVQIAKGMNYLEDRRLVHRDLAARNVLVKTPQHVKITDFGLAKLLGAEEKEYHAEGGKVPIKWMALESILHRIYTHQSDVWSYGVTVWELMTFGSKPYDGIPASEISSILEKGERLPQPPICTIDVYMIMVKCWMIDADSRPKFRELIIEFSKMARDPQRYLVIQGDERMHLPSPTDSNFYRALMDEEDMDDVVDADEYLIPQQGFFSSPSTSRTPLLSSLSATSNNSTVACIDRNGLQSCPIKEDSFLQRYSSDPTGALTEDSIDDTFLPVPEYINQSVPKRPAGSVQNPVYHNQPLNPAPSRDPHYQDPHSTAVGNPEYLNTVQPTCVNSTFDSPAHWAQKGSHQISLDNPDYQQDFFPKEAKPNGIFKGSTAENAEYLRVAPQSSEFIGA
EGFR (h), sequence (P00533 25-1210): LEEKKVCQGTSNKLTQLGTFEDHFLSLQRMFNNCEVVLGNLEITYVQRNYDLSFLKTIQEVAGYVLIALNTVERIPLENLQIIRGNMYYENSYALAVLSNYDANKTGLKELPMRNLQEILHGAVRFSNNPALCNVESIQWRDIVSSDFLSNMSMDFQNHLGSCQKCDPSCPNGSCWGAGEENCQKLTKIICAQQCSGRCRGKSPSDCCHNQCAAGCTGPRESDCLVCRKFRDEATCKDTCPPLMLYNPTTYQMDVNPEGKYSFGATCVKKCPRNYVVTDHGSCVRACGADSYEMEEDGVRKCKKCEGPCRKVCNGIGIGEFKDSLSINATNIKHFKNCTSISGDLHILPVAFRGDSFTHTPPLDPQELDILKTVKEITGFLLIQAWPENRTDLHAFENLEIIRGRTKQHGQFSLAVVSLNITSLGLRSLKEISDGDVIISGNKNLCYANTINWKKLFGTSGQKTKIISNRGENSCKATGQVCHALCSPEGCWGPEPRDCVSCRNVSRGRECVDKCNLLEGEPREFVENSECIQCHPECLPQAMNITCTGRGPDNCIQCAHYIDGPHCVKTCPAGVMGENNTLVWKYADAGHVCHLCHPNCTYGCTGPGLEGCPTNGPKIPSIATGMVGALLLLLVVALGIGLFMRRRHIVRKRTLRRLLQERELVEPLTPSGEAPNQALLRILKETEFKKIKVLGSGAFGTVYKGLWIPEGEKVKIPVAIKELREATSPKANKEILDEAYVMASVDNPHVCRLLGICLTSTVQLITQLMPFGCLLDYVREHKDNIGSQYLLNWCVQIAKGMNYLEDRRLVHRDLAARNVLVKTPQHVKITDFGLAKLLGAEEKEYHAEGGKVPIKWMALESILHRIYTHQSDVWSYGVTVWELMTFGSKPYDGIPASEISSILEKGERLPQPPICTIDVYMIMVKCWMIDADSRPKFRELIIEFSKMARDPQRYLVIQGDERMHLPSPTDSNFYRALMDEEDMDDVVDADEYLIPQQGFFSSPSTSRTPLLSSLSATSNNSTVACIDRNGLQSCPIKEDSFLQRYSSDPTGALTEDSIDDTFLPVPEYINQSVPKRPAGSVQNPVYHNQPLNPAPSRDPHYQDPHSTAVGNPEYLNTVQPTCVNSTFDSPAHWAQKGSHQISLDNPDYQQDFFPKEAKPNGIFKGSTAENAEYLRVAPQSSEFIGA

| IC50 [1] [nM] | IC50 [2] [nM] | IC50 [3] [nM] | SMILES | Activity (control) % EGFR (T790M) (h) (EGFR (T790M) (h)) [%] | Activity (control) % ALK (h) (ALK (h)) [%] | Activity (control) % EGFR (L858R) (h) (EGFR (L858R) (h)) [%] | Activity (control) % EGFR (h) (EGFR (h)) [%] | Activity (control) % EGFR (T790M, L858R) (h) (EGFR (T790M, L858R) (h)) [%] |
| --- | --- | --- | --- | --- | --- | --- | --- | --- |
| > 3000 | > 3000 | 2630 | COc1cc(N2CCC(N(C)C)CC2)ccc1Nc1ncc(Cl)c(Nc2ccccc2C(=O)C(N)=O)n1 [Example 4, 2-(2-(5-chloro-2-(4-(4-(dimethylamino)piperidin-1-yl)-2-methoxyphenylamino)pyrimidin-4-ylamino)phenyl)-2-oxoacetamide] | 4 | 8 | 8 | 65 | 2 |
| > 3000 | 1130 | 900 | CNC(=O)C(=O)c1ccccc1Nc1nc(Nc2ccc(N3CCC(N(C)C)CC3)cc2OC)ncc1Cl [Example 16, 2-(2-((5-chloro-2-((4-(4-(dimethylamino)piperidin-1-yl)-2-methoxyphenyl)amino)pyrimidin-4-yl)amino)phenyl)-N-methyl-2-oxoacetamide] | – | – | – | – | – |
| > 3000 | > 3000 | > 3000 | COc1cc(N2CCN(C(C)=O)CC2)ccc1Nc1ncc(Cl)c(Nc2ccccc2C(=O)C(=O)N2CCOCC2)n1 [Example 42, 1-(2-(2-(4-(4-acetylpiperazin-1-yl)-2-methoxyphenylamino)-5-chloropyrimidin-4-ylamino)phenyl)-2-morpholinoethane-1,2-dione] | – | – | – | – | – |
| > 3000 | > 3000 | > 3000 | COc1cc(N2CCN(C)CC2)ccc1Nc1ncc(C(F)(F)F)c(Nc2ccccc2C(=O)C(=O)N2CCOCC2)n1 [Example 43, 1-(2-(2-(2-methoxy-4-(4-methylpiperazin-1-yl)phenylamino)-5-(trifluoromethyl)pyrimidin-4-ylamino)phenyl)-2-morpholinoethane-1,2-dione] | – | – | – | – | – |
| > 3000 | 1230 | 2360 | COc1cc(N2CCN(C)CC2)ccc1Nc1ncc(Cl)c(Nc2ccccc2C(=O)C(=O)N2CCOCC2)n1 [Example 44, 1-(2-(5-chloro-2-(2-methoxy-4-(4-methylpiperazin-1-yl)phenylamino)pyrimidin-4-ylamino)phenyl)-2-morpholinoethane-1,2-dione] | – | – | – | – | – |
| > 3000 | > 3000 | > 3000 | COc1cc(N2CCC(N(C)C)CC2)ccc1Nc1ncc(C(F)(F)F)c(Nc2ccccc2C(=O)C(=O)N2CCOCC2)n1 [Example 45, 1-(2-(2-(4-(4-(dimethylamino)piperidin-1-yl)-2-methoxyphenylamino)-5-(trifluoromethyl)pyrimidin-4-ylamino)phenyl)-2-morpholinoethane-1,2-dione] | – | – | – | – | – |
| > 3000 | 810 | 1630 | COc1cc(N2CCN(C)CC2)ccc1Nc1ncc(Cl)c(Nc2ccccc2C(=O)C(=O)N(C)C)n1 [Example 46, 2-(2-(5-chloro-2-(2-methoxy-4-(4-methylpiperazin-1-yl)phenylamino)pyrimidin-4-ylamino)phenyl)-N,N-dimethyl-2-oxoacetamide] | – | – | – | – | – |
| > 3000 | > 3000 | > 3000 | CNC(=O)C(=O)c1ccccc1Nc1nc(Nc2ccc(N3CCN(C)CC3)cc2OC)ncc1Cl [Example 47, 2-(2-(5-chloro-2-(2-methoxy-4-(4-methylpiperazin-1-yl)phenylamino)pyrimidin-4-ylamino)phenyl)-N-methyl-2-oxoacetamide] | – | – | – | – | – |
| > 3000 | 100 | 270 | C=CC(=O)Nc1cccc(Nc2ncc(Cl)c(Nc3ccccc3C(=O)C(=O)NC)n2)c1 [Example 57, N-(3-(5-chloro-4-(2-(2-(methylamino)-2-oxoacetyl)phenylamino)pyrimidin-2-ylamino)phenyl)acrylamide] | – | – | – | – | – |
| 370 | 980 | 530 | C=CC(=O)Nc1cccc(Nc2ncc(C(F)(F)F)c(Nc3ccccc3C(=O)C(N)=O)n2)c1 [Example 58, N-(3-(4-(2-(2-amino-2-oxoacetyl)phenylamino)-5-(trifluoromethyl)pyrimidin-2-ylamino)phenyl)acrylamide] | – | – | – | – | – |
| > 3000 | 190 | > 3000 | C=CC(=O)N1CCC(NC(=O)C(=O)c2ccccc2Nc2nc(Nc3ccc(F)c(OC)c3)ncc2Cl)CC1 [Example 59, N-(1-acryloylpiperidin-4-yl)-2-(2-(5-chloro-2-(4-fluoro-3-methoxyphenylamino)pyrimidin-4-ylamino)phenyl)-2-oxoacetamide] | – | – | – | – | – |
| 2080 | 150 | 870 | CNC(=O)C(=O)c1ccccc1Nc1nc(Nc2ccc(N3CCN(C)CC3)c(OC)c2)ncc1Cl [Example 60, 2-(2-(5-chloro-2-(3-methoxy-4-(4-methylpiperazin-1-yl)phenylamino)pyrimidin-4-ylamino)phenyl)-N-methyl-2-oxoacetamide] | – | – | – | – | – |
| > 3000 | > 3000 | 2330 | COc1cc(Nc2ncc(Cl)c(Nc3ccccc3C(=O)C(=O)N(C)C)n2)ccc1F [Example 62, 2-(2-(5-chloro-2-(4-fluoro-3-methoxyphenylamino)pyrimidin-4-ylamino)phenyl)-N,N-dimethyl-2-oxoacetamide] | – | – | – | – | – |
| > 3000 | 640 | > 3000 | CNC(=O)C(=O)c1ccccc1Nc1nc(Nc2ccc(F)c(OC)c2)ncc1Cl [Example 63, 2-(2-(5-chloro-2-(4-fluoro-3-methoxyphenylamino)pyrimidin-4-ylamino)phenyl)-N-methyl-2-oxoacetamide] | – | – | – | – | – |
| > 3000 | 650 | 1200 | C=CC(=O)Nc1cc(Nc2ncc(Cl)c(Nc3ccccc3C(=O)C(=O)NC)n2)c(F)cc1OC [Example 68, N-(5-(5-chloro-4-(2-(2-(methylamino)-2-oxoacetyl)phenylamino)pyrimidin-2-ylamino)-4-fluoro-2-methoxyphenyl)acrylamide] | – | – | – | – | – |
| > 3000 | 310 | 1200 | C=CC(=O)Nc1cc(Nc2ncc(Cl)c(Nc3ccccc3C(=O)C(=O)N(C)C)n2)c(F)cc1OC [Example 69, N-(5-(5-chloro-4-(2-(2-(dimethylamino)-2-oxoactyl)phenylamino)pyrimidin-2-ylamino)-4-fluoro-2-methoxyphenyl)acrylamide] | – | – | – | – | – |
| 1370 | 310 | 1050 | C/C=C/C(=O)Nc1ccc(OC)c(Nc2ncc(Cl)c(Nc3ccccc3C(=O)C(=O)N(C)C)n2)c1 [Example 70, (E)-N-(3-(5-chloro-4-(2-(2-(dimethylamino)-2-oxoacetyl)phenylamino)pyrimidin-2-ylamino)-4-methoxyphenyl)but-2-enamide] | – | – | – | – | – |

| SMILES | IC50 [1] [nM] | IC50 [2] [nM] | IC50 [3] [nM] | Activity (control) % EGFR (T790M) (h) (EGFR (T790M) (h)) [%] | Activity (control) % ALK (h) (ALK (h)) [%] | Activity (control) % EGFR (L858R) (h) (EGFR (L858R) (h)) [%] | Activity (control) % EGFR (h) (EGFR (h)) [%] | Activity (control) % EGFR (T790M, L858R) (h) (EGFR (T790M, L858R) (h)) [%] |
| --- | --- | --- | --- | --- | --- | --- | --- | --- |
| C=CC(=O)Nc1cccc(Nc2ncc(Cl)c(Nc3ccccc3C(=O)C(=O)N(C)C)n2)c1 [Example 40, N-(3-(5-chloro-4-(2-(2-(dimethylamino)-2-oxoacetyl)phenylamino)pyrimidin-2-ylamino)phenyl)acrylamide] | 640 | 10 | 70 | 79 | 28 | 103 | 106 | 24 |
